Measured values from patent publication US11730810B2, “Composition comprising an antigen and a substituted imidazo[1,2-a]pyrimidine for enhancing human immune response” (Children's Medical Center Corporation, priority 2017, dated 2023).

Legend:
[1] = system: mouse splenocytes; test: Splenocyte in vitro stimulation, murine IL-6 by ELISA; type: cell-based, C57BL/6 mice; conditions: 33 μM, 18 hours
[2] = system: Human adult and elderly PBMCs; test: Stimulation of adult and elderly PBMCs, TNF and IL-1β by ELISA; type: cell-based
Procedure: (FIG. 2A) Human adult (top) and elderly (bottom) PBMCs stimulated for 18 hours with the TLR7/8 agonist R848 and 24 confirmed hit compounds from TNF AlphaLISA screen. TNF (left panels) and IL-1β (right panels) were assessed in cell-free supernatants by ELISA. Data are shown as median and interquartile range of N=5.
(§1) ELISAs and Multiplex-Analyte Assays. Supernatants derived from human PBMCs and DC stimulations were assayed by ELISA for TNF (ThermoFisher Scientific; Waltham, Mass., USA). Cytokine and chemokine expression profiles (e.g., IFNγ, IL-10, IL-12 (p70), IL-1β, IL-6, IL-8, MIP-1α/CCL3, TNF and GM-CSF) in cell culture supernatants were measured using a customized 9-plex Milliplex® Human Th17 Magnetic Bead Panel according to the manufacturer's instructions (Millipore, Chicago, Ill., USA). Assays were read and analyzed on the Luminex® 100/200™ System and xPOTENT® software (Luminex, Austin, Tex.). A minimum threshold was set at the minimum detectable concentration for each individual assay, defined as three standard deviations above the mean background.
In vitro PBMC stimulation. PBMCs were isolated from blood using a Ficoll density gradient. PBMCs either used fresh or stored at 5×10^7 cells per vial in 1 mL RPMI containing 20% autologous plasma and 10% DMSO at −80° C. until use. […]

[3] = system: primary human blood mononuclear cells (PBMC); test: TNF AlphaLISA screen on primary human PBMCs; type: cell-based; conditions: hit = robust Z score >2 in both duplicates and in at least 2 of 3 donors
Procedure: To identify immunomodulators/adjuvants that robustly activate human immune cells, ˜200,000 small molecules were tested against THP1 NF-κB reporter cells in a screen. As there is evidence that cell culture lines such as THP-1 cells may not model responses of natural primary human leukocytes, smaller-scale novel high throughput screening methodology was also employed, in which 9,000 commercially available compounds (focusing on small molecule library plates that had relatively high # of hits form the THP-1 screen) were screened using primary human blood mononuclear cells (PBMC) from three different adult human donors (TNFαLISA Assay) (FIGS. 1A-1C).
TNF AlphaLISA screen was comprised of three parts: 1) human peripheral blood collection and PBMC isolation—human adult peripheral blood was collected with written consent. PBMCs were isolated from the blood using Ficoll density gradient. […]
Based on antibody-coated fluorometric excitation/emission beads, the Alpha technology (PerkinElmer) enables the detection and screening of target molecules, in this case TNFα, in a no-wash, highly sensitive, quantitative assay compatible with high throughput screening.
TNFαLISA Assay. […] Viability was assessed by trypan blue staining and cells were then resuspended to 6.67×10^5 viable cells/mL in DMEM with 10% autologous plasma. […]

[4] = system: human adult PBMCs; test: 9-plex multiplex cytokine assay after stimulation of adult PBMCs; type: cell-based; conditions: 0.1 μM-33 μM, 18 hours, 10% autologous plasma, N=4; compared with R848
Procedure: Shown is a 9-plex multiplex cytokine assay after stimulation of adult peripheral blood mononuclear cells (PBMCs) with compound 037 or R848 at four different concentrations (0.1 μM-33 μM). Radar plots of immune polarizing cytokine production from human adult PBMCs stimulated for 18 hours in 10% autologous plasma, represented as fold-change over RPMI unstimulated control (N=4).
as §1

[5] = system: THP1-Lucia cells; test: NF-kB-induced Luminescence Assay in THP1-Lucia cells; type: cell-based, human; conditions: in comparison to positive control R848, N=4
Procedure: (FIG. 5A) Human adult PBMCs were stimulated for 18 hours with the positive control compound R848 or compound 037 and its analogs at 33 μM. Production human TNF was measured in cell-free supernatants by ELISA (N=5). […] Results are shown as the median, the 25th and 75th percentiles (boxes) and the 5th and 95th percentiles (whiskers). **p<0.01 determined by repeated measure one-way ANOVA with Dunnett's multiple comparison test on log-transformed data and comparing each compound with DMSO (control condition).
THP-1 Cell Line and Culture Conditions. The THP1-Lucia™ cell line was obtained from Invivogen (San Diego, Calif.). THP1-Lucia cells, which are human monocytic cells derived from the blood of a child with leukemia, contain an NF-kB-inducible Luc reporter construct. This allows NF-kB activation to be measured by quantifying the luminescence from the secreted luciferase enzyme. THP1-Lucia cells were cultured in RPMI 1640 supplemented with 10% non-heat inactivated fetal bovine serum (FBS), 10 mM HEPES, 1.0 mM sodium pyruvate, 50 ug/ml Pen-Strep, and 100 ug/mL Normocin™. Once cultured, the cells were stored in a 37° C. incubator with 5% CO2 and a humidified atmosphere. […]
NF-kB-induced Luminescence Assay. […] Immediately after adding the substrate, the luminescence was read using a PerkinElmer Envision plate reader.

[6] = system: human adult PBMCs; test: In vitro PBMC stimulation, TNF production by ELISA (Table 1); type: cell-based; conditions: 18 hours
Procedure: (§2) Human adult PBMCs were stimulated for 18 hours with compound 037 and its analogs at 33 μM. Production of human TNF was assessed in cell-free supernatants by ELISA. Results are shown as the median, the 25th and 75th percentiles (boxes) and the 5th and 95th percentiles (whiskers) and expressed as percentage TNF production (TNF %) as compared to R848 (FIG. 6A) or TNF concentration in ng/ml (FIG. 6B) (N=3-5). **p<0.01 determined by repeated measure one-way ANOVA with Dunnett's multiple comparison test on log-transformed data and comparing each compound with DMSO (control condition).
as §2, with “7A)” for “6A)”, “7B) (N=5). Analogs are ranked left to right by TNF % (compound 037 on the far left). Compound 037 analogs have been classified in the following categories according to TNF %: high activity—class A: TNF %>15%; medium activity—class B: 1%<TNF %≤15%; low activity—class C: TNF %≤1%.” for “6B) (N=3-5).”
Table 1 provides the activity of exemplary compounds on stimulating TNF production in PBMCs as compared to the benchmark compound R848. Specifically, TNF production was measured by ELISA after stimulation of adult PBMCs with compound 037 analog family or the compound R848 at 33 μM for 18 hours. […]
ELISAs and Multiplex-Analyte Assays. […] Cytokine and chemokine expression profiles (e.g., IFNγ, IL-10, IL-12 (p70), IL-1β, IL-6, IL-8, MIP-1α/CCL3, TNF and GM-CSF) in cell culture supernatants were measured using a customized 9-plex Milliplex® Human Th17 Magnetic Bead Panel according to the manufacturer's instructions (Millipore, Chicago, Ill., USA). […]

## Cc1cnc2nc(-c3ccc(C)c(NC(=O)c4ccccc4C(F)(F)F)c3)cn2c1 [FRF-02-144-3, N-(2-Methyl-5-(6-methylimidazo[1,2-a]pyrimidin-2-yl)phenyl)-2-(trifluoromethyl)benzamide]
[1]
  activation of mouse splenocytes (murine IL-6) and human PBMCs (TNF): activates both human PBMCs and mouse splenocytes

## CCC(C(=O)Nc1cc(-c2cn3cccnc3n2)ccc1C)c1ccccc1 (stereo not drawn) [Compound 37]
[2]; adult and elderly PBMCs stimulated for 18 hours, N=5
  induction of TNF and IL-1β: induce TNF and IL-1β
[2]; adult and elderly PBMCs, 18 hours
  potency rank as inducer of innate immune cytokines among 24 confirmed hits: most potent inducers of innate immune cytokines
[3]
  hit in PBMC TNFαLISA screen: identified
[4]
  cytokine response (9-plex), fold-change over RPMI unstimulated control: broad concentration-dependent cytokine response
[5]
  NF-κB-driven expression of luciferase: little activity

## Cc1ccc(-c2cn3cc(F)cnc3n2)cc1NC(=O)C(c1ccccc1)C(C)C (stereo not drawn) [FRF-03-082, N-(5-(6-Fluoroimidazo[1,2-a]pyrimidin-2-yl)-2-methylphenyl)-3-methyl-2-phenylbutanamide]
[6]; 33 μM, ELISA, median of N=3-5, no unit in table (FIGS. 6B/7B express TNF concentration in ng/ml)
  TNF (Median): 1.008
[6]; classified according to TNF % vs R848, 33 μM
  Activity class: A (high activity—class A: TNF % >15%)
[6]; median percentage TNF production as compared to R848, 33 μM
  TNF % (Median): 41.65%
